The text below walks through data of US10308667B2, “Oxadiazolopyridine derivatives for use as ghrelin O-acyl transferase (GOAT) inhibitors” (Boehringer Ingelheim International GmbH, priority 2016, dated 2019).

SMILES strings stand for the structures. pIC50: −log10 of the molar value.

The target in this assay is human GOAT (Homo sapiens (Human), UniProt Q96T53). The assay can be described thus: Determination of hGOAT Activity in HEK293 Cells after Incubation with Test Compound. It counts as cell-based. The note with it: HEK293 cells stably transfected with preproghrelin and human GOAT; octanoate-BSA 100 μM; acyl-ghrelin in medium by ELISA after 5 hours. The gist of the method: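 HEK293 cells stably expressing preproghrelin and human GOAT were given serum-free medium with 100 μM octanoate-BSA plus compound (0.3% DMSO) for 5 h. Acyl-ghrelin in the medium was quantified by ELISA (A405, standard curve) as % of vehicle. IC50 was fitted from 8 concentrations.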
Chain of human GOAT (Q96T53 whole entry): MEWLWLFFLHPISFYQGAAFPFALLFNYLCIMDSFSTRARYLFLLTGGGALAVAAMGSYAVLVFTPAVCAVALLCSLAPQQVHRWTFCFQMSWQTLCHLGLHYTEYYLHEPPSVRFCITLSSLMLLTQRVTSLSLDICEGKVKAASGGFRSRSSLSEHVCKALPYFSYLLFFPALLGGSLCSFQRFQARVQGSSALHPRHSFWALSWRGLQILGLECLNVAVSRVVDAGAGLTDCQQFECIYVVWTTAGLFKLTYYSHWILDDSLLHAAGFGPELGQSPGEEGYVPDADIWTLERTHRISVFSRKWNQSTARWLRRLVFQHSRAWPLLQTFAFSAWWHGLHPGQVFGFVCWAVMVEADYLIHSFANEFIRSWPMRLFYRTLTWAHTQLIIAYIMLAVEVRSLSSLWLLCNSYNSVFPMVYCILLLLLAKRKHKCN
In turn, `Cc1nc2nonc2c(N)c1Cc1ccc(C#N)c(NCCC(F)F)n1` [Example 144, 6-(7-Amino-5-methyl-[1,2,5]oxadiazolo[3,4-b]pyridin-6-ylmethyl)-2-(3,3-difluoro-propylamino)-nicotinonitrile] showed a negative logarithm of the IC50 (pIC50) of 10.26.

`Cc1nc2nonc2c(N)c1Cc1ccc(C#N)c(NCCC(F)(F)F)n1` [Example 145, 6-(7-Amino-5-methyl-[1,2,5]oxadiazolo[3,4-b]pyridin-6-ylmethyl)-2-(3,3,3-trifluoro-propylamino)-nicotinonitrile]: the pIC50 was 9.49.

`Cc1nc2nonc2c(N)c1Cc1ccc(C#N)c(NCC(C)(C)C#N)n1` [Example 146, 6-(7-Amino-5-methyl-[1,2,5]oxadiazolo[3,4-b]pyridin-6-ylmethyl)-2-(2-cyano-2,2-dimethyl-ethylamino)-nicotinonitrile] had a pIC50 of 8.96.

The compound `Cc1nc2nonc2c(N)c1Cc1ccc(C#N)c(NCC2(C)CCOC2)n1` (stereo not drawn) [Example 147, 6-(7-Amino-5-methyl-[1,2,5]oxadiazolo[3,4-b]pyridin-6-ylmethyl)-2-[(3-methyl-tetrahydro-furan-3-ylmethyl)-amino]-nicotinonitrile] gave a pIC50 of 9.60.

Take `Cc1nc2nonc2c(N)c1Cc1ccc(C#N)c(NCC(C)(C)C(N)=O)n1` [Example 148, 3-[6-(7-Amino-5-methyl-[1,2,5]oxadiazolo[3,4-b]pyridin-6-ylmethyl)-3-cyano-pyridin-2-ylamino]-2,2-dimethyl-propionamide]: the negative-log IC50 (pIC50) is 9.82.

Compound `Cc1nc2nonc2c(N)c1Cc1ccc(C#N)c(NCCCF)n1` [Example 149, 6-(7-Amino-5-methyl-[1,2,5]oxadiazolo[3,4-b]pyridin-6-ylmethyl)-2-(3-fluoro-propylamino)-nicotinonitrile] had a pIC50 of 10.57.

`Cc1nc2nonc2c(N)c1Cc1ccc(N2CCC(F)(F)C2)c(C#N)n1` [Example 150, 6-(7-Amino-5-methyl-[1,2,5]oxadiazolo[3,4-b]pyridin-6-ylmethyl)-3-(3,3-difluoro-pyrrolidin-1-yl)-pyridine-2-carbonitrile] gave a pIC50 of 8.64.

As to `Cc1nc2nonc2c(N)c1Cc1ccc(N2CC(F)(F)C2)c(C#N)n1` [Example 151, 6-(7-Amino-5-methyl-[1,2,5]oxadiazolo[3,4-b]pyridin-6-ylmethyl)-3-(3,3-difluoro-azetidin-1-yl)-pyridine-2-carbonitrile], the pIC50 was 8.74.

In turn, `Cc1nc2nonc2c(N)c1Cc1ccc(N2CCOCC2)c(C#N)n1` [Example 152, 6-(7-Amino-5-methyl-[1,2,5]oxadiazolo[3,4-b]pyridin-6-ylmethyl)-3-morpholin-4-yl-pyridine-2-carbonitrile] gave a negative logarithm of the IC50 (pIC50) of 9.22.

Compound `Cc1nc2nonc2c(N)c1Cc1ccc(NCCF)c(C#N)n1` [Example 153, 6-(7-Amino-5-methyl-[1,2,5]oxadiazolo[3,4-b]pyridin-6-ylmethyl)-3-(2-fluoro-ethylamino)-pyridine-2-carbonitrile] showed a pIC50 of 9.25.

Compound `Cc1nc2nonc2c(N)c1Cc1ccc(NCC(F)F)c(C#N)n1` [Example 154, 6-(7-Amino-5-methyl-[1,2,5]oxadiazolo[3,4-b]pyridin-6-ylmethyl)-3-(2,2-difluoro-ethylamino)-pyridine-2-carbonitrile] gave a pIC50 of 9.77.

In turn, `Cc1nc2nonc2c(N)c1Cc1ccc(-n2cc(F)cn2)c(C#N)n1` [Example 155, 6-(7-Amino-5-methyl-[1,2,5]oxadiazolo[3,4-b]pyridin-6-ylmethyl)-3-(4-fluoro-pyrazol-1-yl)-pyridine-2-carbonitrile] showed a negative logarithm of the IC50 (pIC50) of 8.92.

In the case of `Cc1nc2nonc2c(N)c1Cc1ccc(-n2ccc(C(F)(F)F)n2)c(C#N)n1` [Example 156, 6-(7-Amino-5-methyl-[1,2,5]oxadiazolo[3,4-b]pyridin-6-ylmethyl)-3-(3-trifluoromethyl-pyrazol-1-yl)-pyridine-2-carbonitrile], the negative-log IC50 (pIC50) was 8.46.

`Cc1nc2nonc2c(N)c1Cc1ccc(-n2cccn2)c(C#N)n1` [Example 157, 6-(7-Amino-5-methyl-[1,2,5]oxadiazolo[3,4-b]pyridin-6-ylmethyl)-3-pyrazol-1-yl-pyridine-2-carbonitrile]: the pIC50 is 9.59.

In turn, `Cc1nc2nonc2c(N)c1Cc1ccc(C#N)c(C#N)n1` [Example 158, 6-(7-Amino-5-methyl-[1,2,5]oxadiazolo[3,4-b]pyridin-6-ylmethyl)-pyridine-2,3-dicarbonitrile] showed a negative-log IC50 (pIC50) of 8.77.

Turning to `Cc1nc2nonc2c(N)c1Cc1ccc(S(C)(=O)=O)c(O)n1` [Example 159, 6-(7-Amino-5-methyl-[1,2,5]oxadiazolo[3,4-b]pyridin-6-ylmethyl)-3-methanesulfonyl-pyridin-2-ol], the negative logarithm of the IC50 (pIC50) is 7.82.

The compound `Cc1nc2nonc2c(N)c1Cc1ccc(S(C)(=O)=O)c(S(C)(=O)=O)n1` [Example 160, 6-(5,6-Bis-methanesulfonyl-pyridin-2-ylmethyl)-5-methyl-[1,2,5]oxadiazolo[3,4-b]pyridin-7-ylamine] gave a pIC50 of 8.52.

The compound `Cc1nc2nonc2c(N)c1Cc1ccc(Br)c(S(C)(=O)=O)n1` [Example 161, 6-(5-Bromo-6-methanesulfonyl-pyridin-2-ylmethyl)-5-methyl-[1,2,5]oxadiazolo[3,4-b]pyridin-7-ylamine] gave a pIC50 of 9.05.

In turn, `Cc1nc2nonc2c(N)c1Cc1ccc(C#N)c(S(C)(=O)=O)n1` [Example 162, 6-(7-Amino-5-methyl-[1,2,5]oxadiazolo[3,4-b]pyridin-6-ylmethyl)-2-methanesulfonyl-nicotinonitrile] had a negative-log IC50 (pIC50) of 8.34.

`Cc1nc2nonc2c(N)c1Cc1ccc(Br)c(=O)[nH]1` [Example 163, 6-(7-Amino-5-methyl-[1,2,5]oxadiazolo[3,4-b]pyridin-6-ylmethyl)-3-bromo-1H-pyridin-2-one] showed a pIC50 of 8.60.

As to `Cc1nc2nonc2c(N)c1Cc1cccc(C#N)n1` [Example 164, 6-(7-Amino-5-methyl-[1,2,5]oxadiazolo[3,4-b]pyridin-6-ylmethyl)-pyridine-2-carbonitrile], the negative-log IC50 (pIC50) is 8.13.

Compound `Cc1nc2nonc2c(N)c1Cc1nc(C#N)cc(C(F)F)n1` [Example 165, 2-(7-amino-5-methyl-[1,2,5]oxadiazolo[3,4-b]pyridin-6-ylmethyl)-6-(difluoromethyl)pyrimidine-4-carbonitrile] gave a pIC50 of 7.85.

In turn, `Cc1nc2nonc2c(N)c1Cc1ncc(Cl)c(C(F)F)n1` [Example 166, 6-[5-chloro-4-(difluoromethyl)pyrimidin-2-yl]methyl-5-methyl-[1,2,5]oxadiazolo[3,4-b]pyridin-7-amine] had a negative-log IC50 (pIC50) of 9.42.

`Cc1nc2nonc2c(N)c1Cc1nc(C(F)F)c(Cl)c(C(F)F)n1` [Example 167, 6-[5-chloro-4,6-bis(difluoromethyl)pyrimidin-2-yl]methyl-5-methyl-[1,2,5]oxadiazolo[3,4-b]pyridin-7-amine] gave a negative-log IC50 (pIC50) of 9.09.
